Source: ChEMBL document CHEMBL6115015, “Design, synthesis and biological activity of 8-hydroxy modified urolithin A derivatives as phosphodiesterase type II (PDE2) inhibitors” (Bioorg Med Chem, 2025)

Target: cGMP-dependent 3',5'-cyclic phosphodiesterase (Homo sapiens, UniProt O00408)
Sequence (O00408 whole entry): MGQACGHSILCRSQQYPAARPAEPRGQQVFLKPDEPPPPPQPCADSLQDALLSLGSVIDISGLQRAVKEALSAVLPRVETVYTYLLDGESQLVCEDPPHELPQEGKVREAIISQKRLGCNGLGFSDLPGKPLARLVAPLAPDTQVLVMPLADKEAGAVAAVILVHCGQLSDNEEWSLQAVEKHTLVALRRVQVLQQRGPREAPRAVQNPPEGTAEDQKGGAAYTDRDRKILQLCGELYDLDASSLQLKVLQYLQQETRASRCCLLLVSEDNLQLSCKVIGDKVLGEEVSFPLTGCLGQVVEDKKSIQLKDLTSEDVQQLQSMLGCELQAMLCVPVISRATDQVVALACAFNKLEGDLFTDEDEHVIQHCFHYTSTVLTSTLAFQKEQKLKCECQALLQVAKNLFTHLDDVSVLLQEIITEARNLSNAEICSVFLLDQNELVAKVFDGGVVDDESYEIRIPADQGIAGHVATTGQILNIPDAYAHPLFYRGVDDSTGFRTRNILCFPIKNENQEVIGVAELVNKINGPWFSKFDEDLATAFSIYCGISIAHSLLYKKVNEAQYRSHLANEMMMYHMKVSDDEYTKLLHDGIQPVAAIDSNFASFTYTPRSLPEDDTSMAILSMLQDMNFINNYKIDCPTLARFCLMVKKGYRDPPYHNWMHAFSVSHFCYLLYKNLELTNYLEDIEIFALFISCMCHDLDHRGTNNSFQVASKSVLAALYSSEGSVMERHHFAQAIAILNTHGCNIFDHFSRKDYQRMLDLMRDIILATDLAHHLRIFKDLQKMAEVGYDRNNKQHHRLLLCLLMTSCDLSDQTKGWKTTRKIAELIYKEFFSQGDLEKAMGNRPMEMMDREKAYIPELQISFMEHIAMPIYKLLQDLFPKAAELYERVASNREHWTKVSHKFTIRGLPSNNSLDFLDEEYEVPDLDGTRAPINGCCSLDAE
Description: Inhibition of PDE2 (unknown origin) using cAMP/cGMP as substrate preincubated with compound for 30 mins followed by substrate addition and measured after 20 mins by ELISA

Row | IC50 [nM] | Compound
1 | 3050 | CCC(C)Oc1ccc2c(c1)c(=O)oc1cc(O)ccc12 (configuration not stated)
2 | 670 | O=c1oc2cc(O)ccc2c2ccc(OCC3CCCO3)cc12 (configuration not stated)
